The source made the active and inactive calls. Rule as the data show it: actives have a measured AC50 and inactives only a lower limit.
Tests used:
[1] = target: T1, CAAX prenyl protease 2 (Homo sapiens, UniProt Q9Y256); test: human Rce1 protease inhibitors, dose response, biochemical, yeast membranes, quenched-peptide fluorescence, cherry-pick (AID 588849)
T1 sequence (Q9Y256 whole entry): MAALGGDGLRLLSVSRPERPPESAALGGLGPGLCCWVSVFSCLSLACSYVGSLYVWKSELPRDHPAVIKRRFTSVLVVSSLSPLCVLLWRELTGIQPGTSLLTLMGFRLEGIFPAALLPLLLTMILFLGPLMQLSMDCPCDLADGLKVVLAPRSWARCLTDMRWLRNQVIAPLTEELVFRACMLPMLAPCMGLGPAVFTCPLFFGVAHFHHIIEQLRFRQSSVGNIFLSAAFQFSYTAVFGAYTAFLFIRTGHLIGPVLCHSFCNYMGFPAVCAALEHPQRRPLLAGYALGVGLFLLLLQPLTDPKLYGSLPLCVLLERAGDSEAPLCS

[2] = target: T2, CAAX prenyl protease 2 (Saccharomyces cerevisiae S288c, UniProt Q03530); type: biochemical
T2 sequence (Q03530 whole entry): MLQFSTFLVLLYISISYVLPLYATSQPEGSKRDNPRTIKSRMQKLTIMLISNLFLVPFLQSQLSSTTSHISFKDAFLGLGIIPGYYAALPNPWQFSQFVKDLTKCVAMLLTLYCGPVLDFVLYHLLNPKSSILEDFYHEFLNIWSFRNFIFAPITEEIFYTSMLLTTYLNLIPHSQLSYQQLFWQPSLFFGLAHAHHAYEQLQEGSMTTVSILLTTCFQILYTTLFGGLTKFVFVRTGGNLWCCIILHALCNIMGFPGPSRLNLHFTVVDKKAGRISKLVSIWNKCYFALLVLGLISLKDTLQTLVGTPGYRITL

[3] = tested on: HeLa; test: HeLa cell cytotoxicity, dose response, cytotoxicity control for MITF activator project, CellTiter-Glo luminescence, cherry-pick samples (AID 540259); type: functional, cell-based; conditions: Homo sapiens
[4] = tested on: Escherichia coli; test: microbe, parasite or virus in culture

Compound	AC50 [1]	AC50 [3]	other results
CCOC(=O)c1c(NC(=O)c2cccc(N3C(=O)CCC3=O)c2)sc(C)c1C	31.5 µM (active)		AC50 [2]: > 100 µM (inactive)
CSc1ccc(/C=C/C(=O)OCC(=O)NC(C)C)cc1	35.8 µM (active)		
N#Cc1ccc(NC(=O)c2cccs2)nc1		248 µM (active)	
CC(C)C(c1nnnn1C1CCCC1)N1CCC(C(N)=O)CC1 (stereo unspecified)			AC50 [4]: 164 µM (active)
COc1ccc(N2C(=O)c3ccccc3NC23CCCCC3)cc1		300 µM (active)	

— ChEMBL document CHEMBL1201862, “PubChem BioAssay data set” (2004)
